Experimental data taken from patent publication US12098145B2 (Libra Therapeutics, Inc., priority 2022, dated 2024).

Each compound was assayed against T1, TRPML1 (Homo sapiens, UniProt Q9GZU1) (assay: Cellular TRPML1 assay (FLIPR, GCaMP6f calcium read-out)). Conditions: HEKT-REx/GCaMP6f/TRPML1 cells, FLIPR TETRA, kinetic response over 300 seconds.
T1 construct: expressed in transfected cells; host or cells: HEK T-REx cells stably expressing GCaMP6f and TRPML1
Format: cell-based
Protocol: Example A: Cellular TRPML1 Assay
The final clone for the TRPML1 assay is HEKT-REx/GCaMP6f/TRPML1. GCaMP6f is a genetically encoded calcium indicator that is stably expressed in this cell line and used as a fluorescent read-out.
Experiments were performed in 384 MTP format. Cells are seeded at 15000 cells/well in 20 μl/well of Optimem+0.5% FBS without selection antibiotics. Twenty-four hours later, cells are assayed for the response to various compounds using the Ca^2+ sensitive GCaMP6f protein stably expressed in the cells as readout.
The experiment was performed in a 384-well format according to the following procedures: • 24 h after seeding, the cells were pre-incubated at room temperature for about 10 min. • Started the experiment at the FLIPR^TETRA by injecting 10 μL/w of 3× concentrated test compounds and controls in Ca^2+ free Tyrode's buffer. Monitored the kinetic response over a period of 300 seconds. • Final DMSO concentration: 0.5%
Data from FLIPR^TETRA measurements were analyzed with the Genedata Screener© software.

T1 sequence (Q9GZU1 whole entry): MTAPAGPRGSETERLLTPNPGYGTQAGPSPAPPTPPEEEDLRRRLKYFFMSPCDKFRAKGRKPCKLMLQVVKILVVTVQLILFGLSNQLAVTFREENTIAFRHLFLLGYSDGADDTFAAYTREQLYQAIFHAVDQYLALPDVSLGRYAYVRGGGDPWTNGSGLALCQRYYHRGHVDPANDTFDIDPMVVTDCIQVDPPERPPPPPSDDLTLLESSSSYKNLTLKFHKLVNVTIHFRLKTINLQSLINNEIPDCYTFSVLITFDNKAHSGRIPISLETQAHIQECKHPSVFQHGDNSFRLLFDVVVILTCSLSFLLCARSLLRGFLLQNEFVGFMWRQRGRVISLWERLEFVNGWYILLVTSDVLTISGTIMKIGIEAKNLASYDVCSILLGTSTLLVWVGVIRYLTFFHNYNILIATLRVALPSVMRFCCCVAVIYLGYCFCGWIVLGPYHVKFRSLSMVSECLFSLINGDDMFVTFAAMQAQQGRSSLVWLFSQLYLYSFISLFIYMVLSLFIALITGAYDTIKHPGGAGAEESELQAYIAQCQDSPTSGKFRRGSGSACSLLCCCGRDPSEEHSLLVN

Compound | TRPML1 FLIPR pEC50
Cc1oc(N2CCC(F)(F)C2)nc1C(=O)Nc1ccc(N2CCCCC2)c(F)c1 [Example 121, 2-(3,3-difluoropyrrolidin-1-yl)-N-(3-fluoro-4-(piperidin-1-yl)phenyl)-5-methyloxazole-4-carboxamide] | C (C = 5.0-4.0)

Same assay, conditions: HEKT-REx/GCaMP6f/TRPML1 cells, FLIPR TETRA, kinetic response over 300 seconds; read-out: TRPML1 FLIPR pEC50 (converted)

Compound | EC50
Cc1oc(N2CC3(C2)CC(F)(F)C3)nc1C(=O)Nc1ccc(N2CCCCC2)c(F)c1 [Example 89, 2-(6,6-difluoro-2-azaspiro[3.3]heptan-2-yl)-N-(3-fluoro-4-(piperidin-1-yl)phenyl)-5-methyloxazole-4-carboxamide] | 1 to 10 µM
Cc1oc(N2CCC3(CCC3)C2)nc1C(=O)Nc1ccc(N2CCCCC2)c(F)c1 [Example 92, N-(3-fluoro-4-(piperidin-1-yl)phenyl)-5-methyl-2-(6-azaspiro[3.4]octan-6-yl)oxazole-4-carboxamide] | 10 to 100 µM
Cc1oc(N2CCCC2CO)nc1C(=O)Nc1ccc(N2CCCCC2)c(F)c1 (centres unmarked) [Example 93, N-(3-fluoro-4-(piperidin-1-yl)phenyl)-2-(2-(hydroxymethyl)pyrrolidin-1-yl)-5-methyloxazole-4-carboxamide] | 10 to 100 µM
Cc1oc(N2CCN(C3CC3)CC2)nc1C(=O)Nc1ccc(N2CCCCC2)c(F)c1 [Example 94, 2-(4-cyclopropylpiperazin-1-yl)-N-(3-fluoro-4-(piperidin-1-yl)phenyl)-5-methyloxazole-4-carboxamide] | 10 to 100 µM
Cc1oc(NC2CCCC23CCCO3)nc1C(=O)Nc1ccc(N2CCCCC2)c(F)c1 (centres unmarked) [Example 95, 2-((1-oxaspiro[4.4]nonan-6-yl)amino)-N-(3-fluoro-4-(piperidin-1-yl)phenyl)-5-methyloxazole-4-carboxamide] | 10 to 100 µM
Cc1oc(N2CCC(O)C2)nc1C(=O)Nc1ccc(N2CCCCC2)c(F)c1 (centres unmarked) [Example 97, N-(3-fluoro-4-(piperidin-1-yl)phenyl)-2-(3-hydroxypyrrolidin-1-yl)-5-methyloxazole-4-carboxamide] | 10 to 100 µM
Cc1oc(N2C3CCC2COC3)nc1C(=O)Nc1ccc(N2CCCCC2)c(F)c1 [Example 98, 2-(3-oxa-8-azabicyclo[3.2.1]octan-8-yl)-N-(3-fluoro-4-(piperidin-1-yl)phenyl)-5-methyloxazole-4-carboxamide] | 10 to 100 µM
Cc1oc(N2CCC(CN3CCC3)C2)nc1C(=O)Nc1ccc(N2CCCCC2)c(F)c1 (centres unmarked) [Example 106, 2-(3-(azetidin-1-ylmethyl)pyrrolidin-1-yl)-N-(3-fluoro-4-(piperidin-1-yl)phenyl)-5-methyloxazole-4-carboxamide] | 10 to 100 µM
Cc1oc(N2CCC(CN3CCC(F)(F)CC3)C2)nc1C(=O)Nc1ccc(N2CCCCC2)c(F)c1 (centres unmarked) [Example 107, 2-(3-((4,4-difluoropiperidin-1-yl)methyl)pyrrolidin-1-yl)-N-(3-fluoro-4-(piperidin-1-yl)phenyl)-5-methyloxazole-4-carboxamide] | 10 to 100 µM
Cc1oc(-n2cccc2)nc1C(=O)Nc1ccc(N2CCCCC2)c(F)c1 [Example 113, N-(3-fluoro-4-(piperidin-1-yl)phenyl)-5-methyl-2-(1H-pyrrol-1-yl)oxazole-4-carboxamide] | 1 to 10 µM
Cc1oc(N2CCCCC2)nc1C(=O)Nc1ccc(N2CCCCC2)c(F)c1 [Example 114, N-(3-fluoro-4-(piperidin-1-yl)phenyl)-5-methyl-2-(piperidin-1-yl)oxazole-4-carboxamide] | 10 to 100 µM
Cc1oc(N(C)C(C)C)nc1C(=O)Nc1ccc(N2CCCCC2)c(F)c1 [Example 115, N-(3-fluoro-4-(piperidin-1-yl)phenyl)-2-(isopropyl(methyl)amino)-5-methyloxazole-4-carboxamide] | 10 to 100 µM
Cc1oc(N(C)C)nc1C(=O)Nc1ccc(N2CCCCC2)c(F)c1 [Example 117, 2-(dimethylamino)-N-(3-fluoro-4-(piperidin-1-yl)phenyl)-5-methyloxazole-4-carboxamide] | 10 to 100 µM
Cc1oc(N2CCCC2C)nc1C(=O)Nc1ccc(N2CCCCC2)c(F)c1 (centres unmarked) [Example 119, N-(3-fluoro-4-(piperidin-1-yl)phenyl)-5-methyl-2-(2-methylpyrrolidin-1-yl)oxazole-4-carboxamide] | 1 to 10 µM
Cc1oc(N2CCC(C)C2)nc1C(=O)Nc1ccc(N2CCCCC2)c(F)c1 (centres unmarked) [Example 122, N-(3-fluoro-4-(piperidin-1-yl)phenyl)-5-methyl-2-(3-methylpyrrolidin-1-yl)oxazole-4-carboxamide] | 10 to 100 µM
Cc1oc(N2C[C@H]3CCO[C@H]3C2)nc1C(=O)Nc1ccc(N2CCCCC2)c(F)c1 [Example 123, N-(3-fluoro-4-(piperidin-1-yl)phenyl)-2-((3aR,6aR)-hexahydro-5H-furo[2,3-c]pyrrol-5-yl)-5-methyloxazole-4-carboxamide] | 1 to 10 µM
CCC1(CC)CN(c2nc(C(=O)Nc3cc(F)c(OC4CCCC5(CC5)C4)c(F)c3)c(CC(F)(F)F)o2)C1 (centres unmarked) [Example 132, 2-(3,3-diethylazetidin-1-yl)-N-(3,5-difluoro-4-(spiro[2.5]octan-5-yloxy)phenyl)-5-(2,2,2-trifluoroethyl)oxazole-4-carboxamide] | 1 to 10 µM
COC1(C)CN(c2nc(C(=O)Nc3ccc(OC4CC5CCC(C4)O5)c(F)c3)c(CC(F)(F)F)o2)C1 (centres unmarked) [Example 133, N-(4-((8-oxabicyclo[3.2.1]octan-3-yl)oxy)-3-fluorophenyl)-2-(3-methoxy-3-methylazetidin-1-yl)-5-(2,2,2-trifluoroethyl)oxazole-4-carboxamide] | 1 to 10 µM
CCC1(CC)CN(c2nc(C(=O)Nc3cc(F)c(OC4CCCC5(CCC5)C4)c(F)c3)c(CC(F)(F)F)o2)C1 (centres unmarked) [Example 134, 2-(3,3-diethylazetidin-1-yl)-N-(3,5-difluoro-4-(spiro[3.5]nonan-6-yloxy)phenyl)-5-(2,2,2-trifluoroethyl)oxazole-4-carboxamide] | 1 to 10 µM
O=C(Nc1cc(F)c(OCC23CC(C2)C3)c(F)c1)c1nc(N2CCCC2)oc1CC(F)(F)F [Example 136, N-(4-(bicyclo[1.1.1]pentan-1-ylmethoxy)-3,5-difluorophenyl)-2-(pyrrolidin-1-yl)-5-(2,2,2-trifluoroethyl)oxazole-4-carboxamide] | 0.01 to 1 µM
CCC1(CC)CN(c2nc(C(=O)Nc3cc(F)c(OC4CCCOC4)c(F)c3)c(CC(F)(F)F)o2)C1 (centres unmarked) [Example 137, 2-(3,3-diethylazetidin-1-yl)-N-(3,5-difluoro-4-((tetrahydro-2H-pyran-3-yl)oxy)phenyl)-5-(2,2,2-trifluoroethyl)oxazole-4-carboxamide] | 0.01 to 1 µM
O=C(Nc1cc(F)c(OC2CCC3(CC3)C2)c(F)c1)c1nc(N2CCCC2)oc1CC(F)(F)F (centres unmarked) [Example 138, N-(3,5-difluoro-4-(spiro[2.4]heptan-5-yloxy)phenyl)-2-(pyrrolidin-1-yl)-5-(2,2,2-trifluoroethyl)oxazole-4-carboxamide] | 0.01 to 1 µM

The next lines start with the values.

EC50 | Compound
10 to 100 µM | CCN(c1ccc(NC(=O)c2nc(N3CCCC3)oc2CC(F)(F)F)cc1F)C1CCCC1(F)F (centres unmarked) [Example 87, N-(4-((2,2-difluorocyclopentyl)(ethyl)amino)-3-fluorophenyl)-2-(pyrrolidin-1-yl)-5-(2,2,2-trifluoroethyl)oxazole-4-carboxamide]
10 to 100 µM | NCC1CN(c2nc(C(=O)Nc3ccc(OC4CCCC4(F)F)c(F)c3)c(CC(F)(F)F)o2)C1 (centres unmarked) [Example 88, 2-[3-(aminomethyl)azetidin-1-yl]-N-{4-[(2,2-difluorocyclopentyl)oxy]-3-fluorophenyl}-5-(2,2,2-trifluoroethyl)oxazole-4-carboxamide]
10 to 100 µM | COCc1oc(N2CCCC2)nc1C(=O)Nc1ccc(OC2CCCC2)c(F)c1 [Example 101, N-[4-(cyclopentyloxy)-3-fluorophenyl]-5-(methoxymethyl)-2-(pyrrolidin-1-yl)oxazole-4-carboxamide]
1 to 10 µM | COCc1oc(N2CCCC2)nc1C(=O)Nc1cc(F)c(N2CCCCC2)c(F)c1 [Example 102, N-[3,5-difluoro-4-(piperidin-1-yl)phenyl]-5-(methoxymethyl)-2-(pyrrolidin-1-yl) oxazole-4-carboxamide]
10 to 100 µM | COCc1oc(N2CCCC2C)nc1C(=O)Nc1ccc(N2CCCCC2)c(F)c1 (centres unmarked) [Example 103, N-(3-fluoro-4-(piperidin-1-yl)phenyl)-5-(methoxymethyl)-2-(2-methylpyrrolidin-1-yl)oxazole-4-carboxamide]
1 to 10 µM | COCc1oc(N2CC3(C2)CC(F)(F)C3)nc1C(=O)Nc1ccc(N2CCCCC2)c(F)c1 [Example 104, 2-{6,6-difluoro-2-azaspiro[3.3]heptan-2-yl}-N-[3-fluoro-4-(piperidin-1-yl)phenyl]-5-(methoxymethyl)oxazole-4-carboxamide]
1 to 10 µM | COCc1oc(N2CCCC2)nc1C(=O)Nc1ccc(OC2CCCC2(F)F)c(F)c1 (centres unmarked) [Example 105, N-(4-((2,2-difluorocyclopentyl)oxy)-3-fluorophenyl)-5-(methoxymethyl)-2-(pyrrolidin-1-yl)oxazole-4-carboxamide]
1 to 10 µM | CC(C)OCc1oc(N2CCCC2)nc1C(=O)Nc1ccc(OC2CCCC2(F)F)c(F)c1 (centres unmarked) [Example 109]
1 to 10 µM | CCCc1oc(N2CCCC2)nc1C(=O)Nc1ccc(OC2CCCC2(F)F)c(F)c1 (centres unmarked) [Example 110, N-(4-((2,2-difluorocyclopentyl)oxy)-3-fluorophenyl)-5-propyl-2-(pyrrolidin-1-yl)oxazole-4-carboxamide]
